Reference: patent US20110229570A1, “ORALLY RAPIDLY DISINTEGRATING TABLET AND PROCESS FOR PRODUCING SAME” (priority 2008, published 2011)

Columns and labels:
[1] = Hardness of tablet (tablet hardness tester); assay type: physicochemical; conditions: 1000 kg/punch; for Hardness, tablet obtained by compressing an excipient only: 300 mg tablet, flat punch 10 mm; for Hardness, tablet obtained by compressing a mixture of an excipient and a water-insoluble polymer: 300 mg
Method: A hardness of tablet was measured using a tablet hardness tester (manufactured by Schleuniger, type: 6D). The measurement was carried out thrice, and a hardness of tablet was obtained on an average thereof.

[2] = Water wettability (wetness time) of tablet; assay type: physicochemical; conditions: 1000 kg/punch; for Wetness time, tablet obtained by compressing an excipient only: 300 mg tablet, flat punch 10 mm; for Wetness time, tablet obtained by compressing a mixture of an excipient and a water-insoluble polymer: 300 mg
Method: A water wettability (wetness time) of a tablet was measured in accordance with a known procedure [Chem. Pharm. Bull. 44 (1), 2121-2127 (1996)] as below. Specifically, purified water (6 mL) was put in a weighing dish, and thereon were placed quarto tissue papers (205 mm×120 mm, KimWipe S-200, manufactured by NIPPON PAPER CRECIA Co., LTD). The papers were entirely moistened, and then thereon was gently placed one tablet, and a wetness time required for entirely moistening the tablet was measured.

[3] = (*1) 97 parts excipient + 3 parts HPMC-AS HF
[4] = (*2) 90 parts excipient + 10 parts HPMC-AS HF

OC[C@@H](O)[C@@H](O)[C@H](O)[C@H](O)CO [D-mannitol]
Hardness, tablet obtained by compressing an excipient only [1]: 12 N
Hardness, tablet obtained by compressing a mixture of an excipient and a water-insoluble polymer [1, 3]: 53 (*1) N
Wetness time, tablet obtained by compressing an excipient only [2]: 18 s
Wetness time, tablet obtained by compressing a mixture of an excipient and a water-insoluble polymer [2, 3]: 43 (*1) seconds

OC[C@@H](O)[C@@H](O)CO [Erythritol]
Hardness, tablet obtained by compressing an excipient only [1]: <4 N
Hardness, tablet obtained by compressing a mixture of an excipient and a water-insoluble polymer [1, 4]: 23 (*2) N
Wetness time, tablet obtained by compressing a mixture of an excipient and a water-insoluble polymer [2, 4]: 37 (*2) seconds

OC[C@H]1O[C@@](CO)(O[C@H]2O[C@H](CO)[C@@H](O)[C@H](O)[C@H]2O)[C@@H](O)[C@@H]1O [Purified sucrose]
Hardness, tablet obtained by compressing an excipient only [1]: 41 N
Wetness time, tablet obtained by compressing an excipient only [2]: 3 s

OC[C@@H](O)[C@@H](O)[C@H](O)[C@@H](O)CO [Sorbitol]
Hardness, tablet obtained by compressing an excipient only [1]: 229 N
Hardness, tablet obtained by compressing a mixture of an excipient and a water-insoluble polymer [1, 3]: 207 (*1) N
Wetness time, tablet obtained by compressing an excipient only [2]: >300 s
Wetness time, tablet obtained by compressing a mixture of an excipient and a water-insoluble polymer [2, 3]: >300 (*1) seconds

OC[C@@H](O)[C@H](O)[C@@H](O)CO [Xylitol]
Hardness, tablet obtained by compressing an excipient only [1]: 12 N
Hardness, tablet obtained by compressing a mixture of an excipient and a water-insoluble polymer [1, 4]: 38 (*2) N
Wetness time, tablet obtained by compressing an excipient only [2]: 3 s
Wetness time, tablet obtained by compressing a mixture of an excipient and a water-insoluble polymer [2, 4]: 74 (*2) seconds
